This is an account of results in patent publication US20220054494A1, “METHODS FOR TREATING BLADDER AND URETHRA DYSFUNCTION AND DISEASE” (University of Pittsburgh - Of the Commonwealth System of …, priority 2019, published 2022).

Test [1] relates to LC3. Description: Western immunoblotting, LC3 (lipidated form). The test is classed as in vivo, rat. The following applies: aged rats; oral 8-AG 5 mg/kg/day, 6 weeks. On the procedure:
Western immunoblotting: Following the testing paradigms, rats were deeply anesthetized, bladders as well as the proximal urethra were removed, and one half of each preparation was homogenized using Lysing Matrix D in a FastPrep 24 instrument (MP Biomedicals, Solon, Ohio) in HBSS [5 mM KCl, 0.3 mM KH2PO4, 138 mM NaCl, 4 mM NaHO3, 0.3 mM Na2HCO3, 0.3 mM Na2HPO4, 5.6 mM glucose, and 10 mM Hepes, pH 7.4 containing a complete protease inhibitor cocktail (1 tablet/10 ml, ROCHE®, Indianapolis, Ind.) and a phosphatase inhibitor cocktail (SIGMA®, 1:100)]. After centrifugation (13000 rpm; 15 min at 4° C.), the membrane protein fraction was prepared by suspending the membrane pellets in lysis buffer containing 0.3 M NaCl, 50 mM Tris-HCl (pH 7.6), and 0.5% Triton X-100 and the same concentration of protease inhibitors as above. The suspensions were incubated on ice and centrifuged (13000 rpm; 15 min at 4° C.). The protein concentrations of the combined supernatants were determined using the PIERCE® BCA protein assay (THERMO SCIENTIFIC®, Rockford, Ill.). […] As a loading control, total protein per sample was determined using Bio-Rad Stain Free SDS-PAGE gel technology. UV-activated protein fluorescence was imaged on a CHEMIDOC® MP (BIO-RAD®). […] The volume (intensity) of each protein species was determined and normalized to total protein using Image Lab software (BIO-RAD®).
(In western blotting, separated proteins are transferred to a membrane and probed.)

In test [2] the test system is cleaved PARP. Briefly: Western immunoblotting, cleaved PARP. The test is classed as in vivo, rat. Particulars: aged rats; oral 8-AG 5 mg/kg/day, 6 weeks. The procedure: Western immunoblotting: One half of each bladder preparation was homogenized using Lysing Matrix D in a FastPrep 24 instrument (MP Biomedicals, Solon, Ohio) in HBSS (5 mM KCl, 0.3 mM KH2PO4, 138 mM NaCl, 4 mM NaHO3, 0.3 mM Na2HCO3, 0.3 mM Na2HPO4, 5.6 mM glucose and 10 mM Hepes, pH 7.4) containing complete protease inhibitor cocktail (1 tablet/10 ml, ROCHE®, Indianapolis, Ind.)) and phosphatase inhibitor cocktail (SIGMA®, 1:100). After centrifugation (13000 rpm; 15 min at 4° C.), the membrane protein fraction was prepared by suspending the membrane pellets in lysis buffer containing 0.3 M NaCl, 50 mM Tris-HCl (pH 7.6) and 0.5% Triton X-100 and the same concentration of protease inhibitors as above. The suspensions were incubated on ice and centrifuged (13000 rpm; 15 min at 4° C.). The protein concentrations of the combined supernatants were determined using the PIERCE® BCA protein assay (THERMO SCIENTIFIC®, Rockford, Ill.). After denaturation (100° C. for 5 min) in the presence of Laemmli sample buffer, lysate from each sample was separated on a 4-15% TGX Stain-Free SDS-PAGE gel (BIO-RAD® Laboratories, Hercules, Calif.). As a loading control, total protein per sample was determined using Bio-Rad® Stain Free SDS-PAGE gel technology. UV-activated protein fluorescence was imaged on a CHEMIDOC® MP (BIO-RAD®). […] The volume (intensity) of each protein species was determined and normalized to total protein using Image Lab software (BIO-RAD®).

“Also recorded” adds a separate entry of the source.

`Nc1nc2[nH]c(N)nc2c(=O)[nH]1` [8-AG, 8-Aminoguanine]: in test [1], the “LC3 (lipidated form) expression in detrusor” value is reported as “partially restores expression toward younger state; also recorded: trend toward reversal”. Moreover, in test [2], the “EUS cleaved PARP” value is on record as “restored to a younger state”, the “cleaved PARP in detrusor smooth muscle” value is listed as “levels similar to the younger state; also recorded: restored these biomarkers to that of a younger state” and the “urethral cleaved PARP” value is “normalized to a younger state”.
